Experimental data: PMC6056748, “Amsacrine Derivatives Selectively Inhibit Mycobacterial Topoisomerase I (TopA), Impair M. smegmatis Growth and Disturb Chromosome Replication” (Frontiers in Microbiology, 2018)
Read-outs that look alike come from different tables or passages of the source.

How the values were obtained:
MsTopA [1] = target: T1, MsTopA (Mycolicibacterium smegmatis, UniProt A0R5D9); assay: Topoisomerase I activity assay (relaxation of negatively supercoiled pUC19); assay type: biochemical, M. smegmatis; details: 60 nM MsTopA; for inhibition at 60 µM: 60 μM inhibitor; for MsTopA activity inhibition over concentration range: concentrations from 15 to 60 μM; for MsTopA inhibition in the screen of amsacrine derivatives (Table S2): 60 μM compound, data not shown
Method: The amsacrine derivatives were stored at 4°C as 20 mM stock solutions in DMSO. Shortly before the activity assays, the inhibitors were diluted in DMSO to reach working concentration (0.15–0.6 mM). An 18 μl mixture containing 120 ng MsTopA, 25 mM NaH2PO4 at pH 8.0, 150 mM NaCl, 5% glycerol, 10 mM MgCl2 and a tested inhibitor in a final concentration of 15, 30, or 60 μM was incubated for 30 min on ice. To start the reaction, 2.0 μl (140 ng) of negatively supercoiled pUC19 plasmid were added to the mixture and incubated for 15 min at 37°C in the presence of 60 nM MsTopA. The reaction was stopped by adding 1.5 μl of 0.5 M EDTA. DNA was resolved in 0.8% agarose in TAE buffer at 140 V for 3 h at room temperature. Topoisomers distribution was visualized by ethidium bromide staining for 30 min at room temperature. Subsequently, the fluorescence signal of supercoiled plasmid and the relaxed topoisomers was calculated using ImageJ Fiji suite (http://fiji.sc/Fiji). To determine the efficiency of MsTopA inhibition, we calculated the fraction of total plasmid that remained supercoiled after the reaction.

MsTopA [2] = target: T1, MsTopA; assay: Surface plasmon resonance of MsTopA binding to immobilized DNA; set-up: species or system M. smegmatis; details: for MsTopA affinity for DNA (SPR): 15–90 μM compound, MsTopA 60 nM; for ICB, inhibitory concentration that completely blocks MsTopA binding: 241 bp DNA on chip, inhibitor preincubated with MsTopA
Method: Surface plasmon resonance (SPR)
SPR analyses were performed on a BIAcore T200. For the SPR analyses, the biotinylated fragment (241-bp long) was amplified using parA4200 and parS4440_rv_biot oligonucleotides from S. coelicolor chromosome. DNA immobilization on the surface of the sensor chip SA and protein binding analyses were performed according to the procedure described by Strzalka et al.[9]. Prior to binding to the DNA-coated chip, MsTopA (50 nM) in 25 mM NaH2PO4 pH 8.0, 150 mM NaCl and 5% glycerol (binding buffer) was incubated on ice for 40 minutes with amsacrine or its XC derivatives (in 15 - 90 µM concentrations or 1% DMSO for the control experiment). For each compound, the ICB value was estimated as the inhibitor concentration that completely abolished the binding of MsTopA to the DNA-coated chip.

M. smegmatis mc2155 = assay: Growth analysis (Bioscreen C, log-phase growth rate); assay type: cell-based; details: for inhibition at 30 µM: log-phase growth rate vs 1% DMSO; for IC50 lower than amsacrine: M. smegmatis growth
S. venezuelae = assay: as above; assay type: cell-based; details: for IC50: growth rate in log-phase, Figure 2B
E. coli = assay: as above; assay type: cell-based; details: Escherichia coli; for IC50: growth rate in log-phase, Figure 2B
[3] = test system: M. smegmatis MSZ2 strain producing M. tuberculosis MtTopA; assay type: cell-based
[4] = test system: M. smegmatis strain (JH01), DnaN-EGFP; assay: TLMM: number of DnaN-EGFP foci per cell
Method: For time-lapse microscopy, M. smegmatis strains were cultured to the log-phase of growth, then diluted with 7H9 medium supplemented with 10% OADC and 0.05% Tween-80 and loaded into the flow chamber of B04A plates with a CellASIC ONIX flow control system (Merck-Millipore). During the experiment, the cells were continuously supplied with fresh medium supplemented with the inhibitor (at 30–240 μM concentrations) or 1% DMSO in the control experiment. To visualize dead cells, after 15 h of inhibitor treatment cells were washed with propidium iodide at concentration 10 μg/ml for 1 h. The images were taken in 10 min intervals using a Delta Vision Elite Imager equipped with DV Elite CoolSnap HQ2 Camera and SoftWorx software and were subsequently analyzed using ImageJ Fiji suite (http://fiji.sc/Fiji) and R suite (http://www.R-project.org). The analysis of cell cycle and evaluation of particular phases of growth started from the moment of appearance of a single DnaN-EGFP foci (initiation of DNA replication).

[5] = test system: M. smegmatis (JH01 strain); assay: Propidium iodide staining of dead cells (TLMM); details: 120 μM, after 15 hours of exposure
Method: For time-lapse microscopy, M. smegmatis strains were cultured to the log-phase of growth, then diluted with 7H9 medium supplemented with 10% OADC and 0.05% Tween-80 and loaded into the flow chamber of B04A plates with a CellASIC ONIX flow control system (Merck-Millipore). During the experiment, the cells were continuously supplied with fresh medium supplemented with the inhibitor (at 30–240 μM concentrations) or 1% DMSO in the control experiment. To visualize dead cells, after 15 h of inhibitor treatment cells were washed with propidium iodide at concentration 10 μg/ml for 1 h. The images were taken in 10 min intervals using a Delta Vision Elite Imager equipped with DV Elite CoolSnap HQ2 Camera and SoftWorx software and were subsequently analyzed using ImageJ Fiji suite (http://fiji.sc/Fiji) and R suite (http://www.R-project.org).
M. smegmatis (JH01 strain) growth in the presence of 120 µM amsacrine or 1% DMSO was
visualized using TLMM microscopy (the procedure descirbed in the materials and methods).
After 15 hours of exposure to antibiotic cells were washed with medium suplemented with 10
µg/ml propidium iodide for 1 hour to detect dead cells (red) in the population.

[6] = test system: M. smegmatis strain (JH01), DnaN-EGFP; assay: TLMM: replisome lifetime and cell cycle phases; details: for Phase D+B / Phase C / Complete cell cycle: 120 µM, mean (SD), n = 50; for Phase D+B: 1% DMSO 33 (15); for Phase C: 1% DMSO 129 (15); for Complete cell cycle: 1% DMSO 162 (18); for Average lifetime of DnaN-EGFP complex (replisome lifetime): 120 μM, control 1% DMSO 130 min
MsTopA [7] = target: T1, MsTopA; assay: MsTopA inhibition in PI, NI and PN order-of-addition assays; assay type: biochemical, M. smegmatis; details: 60 μM inhibitor, 60 nM MsTopA
Method: In the inhibition assays used to test the effect of inhibitor binding to the enzyme, DNA or the enzyme-DNA complex (PI—protein-inhibitor binding, NI—nucleic acid-inhibitor binding, or PNI—protein-nucleic acid binding) the complete reaction mixtures (as above) without magnesium ions and one of the reaction components (substrate, enzyme or inhibitor in the PI, NI, and PNI assays, respectively) were preincubated for 30 min on ice. Subsequently, the reactions were started by adding magnesium chloride and the missing component: negatively supercoiled pUC19 plasmid, MsTopA protein or the particular inhibitors. The reactions were performed for 5 min at 37°C and stopped by adding 1.5 μl of 0.5 M EDTA. Topoisomers were resolved and analyzed according to the procedure described above.

[8] = Solubility under microfluidic conditions; assay type: physicochemical
[9] = Mycolicibacterium smegmatis, MC2155
[10] = Mycolicibacterium smegmatis, MC2155, M. smegmatis, Figure S4, read-out: IC50 (growth inhibition fitted to a sigmoidal model)
[11] = Mycolicibacterium smegmatis, MC2155, growth rate in log-phase, Figure 2B, read-out: IC50 M. smegmatis

T1 sequence (A0R5D9 whole entry): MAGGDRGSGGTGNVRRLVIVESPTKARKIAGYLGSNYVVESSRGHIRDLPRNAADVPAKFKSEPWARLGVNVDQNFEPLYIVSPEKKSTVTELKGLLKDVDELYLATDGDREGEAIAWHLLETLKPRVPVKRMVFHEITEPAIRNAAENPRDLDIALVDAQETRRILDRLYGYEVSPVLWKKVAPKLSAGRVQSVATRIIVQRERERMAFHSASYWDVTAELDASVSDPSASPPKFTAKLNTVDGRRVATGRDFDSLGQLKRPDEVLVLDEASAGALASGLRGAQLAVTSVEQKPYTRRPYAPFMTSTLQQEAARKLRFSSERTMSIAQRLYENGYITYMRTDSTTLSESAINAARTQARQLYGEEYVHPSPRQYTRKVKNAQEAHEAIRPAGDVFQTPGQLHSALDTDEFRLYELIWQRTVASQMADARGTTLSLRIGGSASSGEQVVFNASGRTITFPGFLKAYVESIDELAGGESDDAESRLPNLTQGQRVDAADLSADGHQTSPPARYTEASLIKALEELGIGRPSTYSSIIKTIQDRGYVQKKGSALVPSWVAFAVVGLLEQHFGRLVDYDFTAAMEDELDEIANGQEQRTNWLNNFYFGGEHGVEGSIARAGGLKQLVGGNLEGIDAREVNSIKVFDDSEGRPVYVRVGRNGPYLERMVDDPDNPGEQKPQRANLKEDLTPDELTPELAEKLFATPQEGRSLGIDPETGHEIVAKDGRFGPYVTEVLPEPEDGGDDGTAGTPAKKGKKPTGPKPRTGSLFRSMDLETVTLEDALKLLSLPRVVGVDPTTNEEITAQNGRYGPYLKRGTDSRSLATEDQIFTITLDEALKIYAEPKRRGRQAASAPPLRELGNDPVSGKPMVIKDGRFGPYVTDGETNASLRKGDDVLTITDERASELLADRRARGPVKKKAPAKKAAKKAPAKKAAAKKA

Compound | inhibition at 60 µM (MsTopA [1]) [%] | MsTopA activity inhibition over concentration range (MsTopA [1]) | MsTopA affinity for DNA (SPR) (MsTopA [2]) | ICB, inhibitory concentration that completely blocks MsTopA binding (MsTopA [2]) [µM] | inhibition at 30 µM (M. smegmatis mc2155; [9]) [%] | IC50 (M. smegmatis mc2155; [10]) [µM] | IC50 (M. smegmatis mc2155; [11]) [µM] | IC50 (S. venezuelae; Streptomyces venezuelae) [µM] | IC50 (E. coli) [µM] | Difference in growth inhibition between wild-type M. smegmatis and MSZ2 strain producing MtTopA [3] | Percentage of cells with more than two DnaN-EGFP foci ([4]; 120 μM) | Percentage of cells with no DnaN-EGFP focus ([4]; 120 μM) | Phase D+B [6] | Phase C [6] | Average lifetime of DnaN-EGFP complex (replisome lifetime) [6] | MsTopA inhibition in the screen of amsacrine derivatives (Table S2) (MsTopA [1]) | Inhibitory effect when added to the preformed MsTopA-DNA complex (PN assay) (MsTopA [7]) | S. venezuelae growth inhibition (S. venezuelae; 60 μM) | IC50 lower than amsacrine (M. smegmatis mc2155) | further results
COc1cc(NS(C)(=O)=O)ccc1Nc1c2ccccc2nc2ccccc12 [Amsacrine, amsacrine] | 64 | strongly inhibit MsTopA activity at concentrations >30 μM | decrease in enzyme affinity for DNA | 90 | 20 to 30 | 40 | 41 | 47 | > 90 | did not observe any differences in growth inhibition | 27.6% | 26.1% | 40 (21) min | 154 (32) min | slightly increased |  |  |  |  | inhibition at 60 µM (M. smegmatis mc2155; Mycolicibacterium smegmatis, MC2155, 60 μM): ≤ 80%; inhibition at 60 µM (S. venezuelae; Streptomyces venezuelae, 60 μM): ≤ 80%; inhibition at 60 µM (E. coli; read-out: E. coli growth inhibition): 32%; Percentage of cells with more than two DnaN-EGFP foci ([4]; 240 μM): 6.2%; Percentage of cells with no DnaN-EGFP focus ([4]; 240 μM): 48%; Fraction of dead cells (propidium iodide) [5]: 12%; Complete cell cycle [6]: 194 (36) min; Complete cell cycle ([6]; listed as amsacrine): only slightly
COc1cc(NS(=O)(=O)c2ccccc2)ccc1Nc1c2ccccc2nc2ccccc12 [XC-1] | 73 | strongly inhibit MsTopA activity at concentrations >30 μM | decrease in enzyme affinity for DNA | 60 | 20 to 30 | 55.4 | 58 | > 90 | > 90 | did not observe any differences in growth inhibition | 13.4–19.1% | 13.8–18.3% |  |  | slightly increased | efficiently inhibited MsTopA activity | notably weaker | much lesser extent than amsacrine |  | 
COc1cc(NS(=O)(=O)c2ccc(Cl)cc2)ccc1Nc1c2ccccc2nc2ccccc12 [XC-2] | 63 | strongly inhibit MsTopA activity at concentrations >30 μM | decrease in enzyme affinity for DNA | 30 | 20 to 30 | 56 |  | 85 | > 90 | did not observe any differences in growth inhibition | 13.4–19.1% | 13.8–18.3% |  |  | slightly increased | efficiently inhibited MsTopA activity | notably weaker | much lesser extent than amsacrine |  | 
COc1cc(NS(=O)(=O)c2ccc([N+](=O)[O-])cc2)ccc1Nc1c2ccccc2nc2ccccc12 [XC-3] | 73 | strongly inhibit MsTopA activity at concentrations >30 μM | decrease in enzyme affinity for DNA | 15 | 55 to 60 | 26.8 | 26 | > 90 | 78 | did not observe any differences in growth inhibition | 13.4–19.1% | 13.8–18.3% |  |  | slightly increased | efficiently inhibited MsTopA activity |  | much lesser extent than amsacrine | 30–40% | Solubility under microfluidic conditions [8]: poor solubility
COc1cc(NS(=O)(=O)c2ccc(C)cc2)ccc1Nc1c2ccccc2nc2ccccc12 [XC-4] | 80 | strongly inhibit MsTopA activity at concentrations >30 μM | decrease in enzyme affinity for DNA | 15 | 55 to 60 | 27 | 28 | > 90 | 86 | did not observe any differences in growth inhibition | 4.6% |  | 70 (38) min | 240 (51) min | 220 min | efficiently inhibited MsTopA activity |  | much lesser extent than amsacrine | 30–40% | Percentage of cells with more than two DnaN-EGFP foci ([4]; 30 μM): 19.3%; DnaN-EGFP lifetime ([6]; 30 μM, compared with 120 μM XC-4): shortened the DnaN-EGFP lifetime
COc1cc([C@@H]2c3cc4c(cc3[C@@H](O[C@@H]3O[C@@H]5CO[C@@H](C)O[C@H]5[C@H](O)[C@H]3O)[C@H]3COC(=O)[C@H]23)OCO4)cc(OC)c1O [etoposide, reference compound] |  |  |  |  |  |  |  |  |  |  |  |  |  |  |  |  |  |  |  | MsTopA inhibition (MsTopA [1]; etoposide 0.1 - 2.0 mM): did not observe MsTopA inhibition
